System: moderate-to-severe chronic spontaneous urticaria (CSU)
Experiment: Phase 2 CSU study: urticaria activity score over 7 days (UAS7)
Format: in vivo, human
Set-up: key to UAS7 Median / UAS7 Change from baseline Median / UAS7 change from baseline, Q1 / UAS7 change from baseline, Q3 / UAS7 change from baseline, Max / UAS7 Change from baseline LS Mean (SE): UAS7 points; daily UAS score ranges 0–6 points/day, over 7 days
Source text: The study comprises a 12 week, randomized, double-blind, placebo-controlled, multi-center, dose-ranging efficacy and safety phase, followed by a 40 week open label extension (OLE) phase (see FIG. 1). The study consists of three phases and an optional OLE phase. […] Clinically, CSU is characterized by the spontaneous and recurrent appearance of pruritic hives. The proposed primary endpoints were the UAS7 at Week 12 in EU and EU reference countries and the ISS7 in the US. Regardless of where a participant was from, all assessments were the same. The UAS7 score is a composite score containing both the HSS7 and the ISS7. This allowed a global assessment of the two key components of urticaria: hives and itch. […] The UAS is a validated PRO measure. […] The daily UAS scores range from 0 to 6 point/day. […] Patients were to complete the UAS using the e-diary. […] The following secondary endpoints were to be analyzed using the same approach as for the primary endpoint: • Change from baseline in UAS7 at Week 4 • Change from baseline in UAS7 at Week 12 (for US and US reference countries) • Change from baseline in ISS7 at Week 12 (except US and US reference countries) • Change from baseline in HSS7 at Week 12 The following responder secondary endpoints were to be analyzed using the Cochran-Mantel-Haenszel test adjusted by region: • Proportion of participants with UAS7<6 at Week 12 • Proportion of participants with UAS7=0 at Week 12 Participants who received selected prohibited medications and/or rescue medications were to be considered as non-responders for time points after the medication usage. For other participants, all available data including those collected during the off-treatment period were to be used to determine the responder/non-responder status. Missing data were to be considered as non-responders.

[1] = Week 4, 400 mg TID, omalizumab-naive participants
[2] = Week 5, 400 mg BID, ITT population
[3] = Week 5, 400 mg BID, Omalizumab-Naïve
[4] = Week 5, 400 mg BID, Prior Omalizumab Use
[5] = Week 5, 400 mg BID, omalizumab-naive participants
[6] = Week 5, 400 mg QPM, ITT population
[7] = Week 5, 400 mg QPM, Omalizumab-Naïve
[8] = Week 5, 400 mg QPM, Prior Omalizumab Use
[9] = Week 5, 400 mg QPM, omalizumab-naive participants
[10] = Week 5, 400 mg TID, ITT population
[11] = Week 5, 400 mg TID, Omalizumab-Naïve
[12] = Week 5, 400 mg TID, Prior Omalizumab Use
[13] = Week 5, 400 mg TID, omalizumab-naive participants

CC(C)(C=C(C#N)C(=O)N1CCC[C@@H](n2nc(-c3ccc(Oc4ccccc4)cc3F)c3c(N)ncnc32)C1)N1CCN(C2COC2)CC1 [rilzabrutinib, (R)-2-[3-[4-amino-3-(2-fluoro-4-phenoxy-phenyl)pyrazolo[3,4-d]pyrimidin-1-yl]piperidine-1-carbonyl]-4-methyl-4-[4-(oxetan-3-yl)piperazin-1-yl]pent-2-enenitrile]
UAS7 Percent change from baseline Median (Week 4, 400 mg TID, Prior Omalizumab Use): −68.48% | Non-responder, UAS7 reduction from baseline of 10 points or more [1]: 11 (31.4) n (%) | OR for rilzabrutinib vs. placebo, UAS7 reduction of 10 points or more [1]: 3.855 | RRD (%) for rilzabrutinib vs. placebo, UAS7 reduction of 10 points or more [1]: 31.2 % | Responder, UAS7 reduction from baseline of 10 points or more [1]: 24 (68.6) n (%) | Non-responder, UAS7 reduction from baseline of 10 points or more [2]: 19 (46.3) n (%) | OR for rilzabrutinib vs. placebo, UAS7 reduction of 10 points or more [2]: 1.238 | RRD (%) for rilzabrutinib vs. placebo, UAS7 reduction of 10 points or more [2]: 5.2 % | Responder, UAS7 reduction from baseline of 10 points or more [2]: 22 (53.7) n (%) | UAS7 Change from baseline Mean (SD) [3]: −12.56 (11.55) | UAS7 Change from baseline Median [3]: −12.67 | UAS7 Mean (SD) [3]: 17.22 (13.36) | UAS7 Median [3]: 16.50 | UAS7 Percent change from baseline Mean (SD) [3]: −44.07 (39.75) % | UAS7 Percent change from baseline Median [3]: −40.89% | UAS7 Change from baseline Mean (SD) [4]: −25.00 (18.42) | UAS7 Change from baseline Median [4]: −29.00 | UAS7 Mean (SD) [4]: 9.75 (16.94) | UAS7 Median [4]: 2.00 | UAS7 Percent change from baseline Mean (SD) [4]: −71.30 (48.04) % | UAS7 Percent change from baseline Median [4]: −92.59% | Non-responder, UAS7 reduction from baseline of 10 points or more [5]: 16 (45.7) n (%) | OR for rilzabrutinib vs. placebo, UAS7 reduction of 10 points or more [5]: 1.329 | RRD (%) for rilzabrutinib vs. placebo, UAS7 reduction of 10 points or more [5]: 7.0 % | Responder, UAS7 reduction from baseline of 10 points or more [5]: 19 (54.3) n (%) | Non-responder, UAS7 reduction from baseline of 10 points or more [6]: 21 (55.3) n (%) | OR for rilzabrutinib vs. placebo, UAS7 reduction of 10 points or more [6]: 0.950 | RRD (%) for rilzabrutinib vs. placebo, UAS7 reduction of 10 points or more [6]: −1.3 % | Responder, UAS7 reduction from baseline of 10 points or more [6]: 17 (44.7) n (%) | UAS7 Change from baseline Mean (SD) [7]: −10.65 (9.52) | UAS7 Change from baseline Median [7]: −8.50 | UAS7 Mean (SD) [7]: 20.63 (9.18) | UAS7 Median [7]: 18.63 | UAS7 Percent change from baseline Mean (SD) [7]: −32.46 (26.63) % | UAS7 Percent change from baseline Median [7]: −27.86% | UAS7 Change from baseline Mean (SD) [8]: −22.00 (NC) | UAS7 Change from baseline Median [8]: −22.00 | UAS7 Mean (SD) [8]: 19.00 (NC) | UAS7 Median [8]: 19.00 | UAS7 Percent change from baseline Mean (SD) [8]: −53.66 (NC) % | UAS7 Percent change from baseline Median [8]: −53.66% | Non-responder, UAS7 reduction from baseline of 10 points or more [9]: 21 (56.8) n (%) | OR for rilzabrutinib vs. placebo, UAS7 reduction of 10 points or more [9]: 0.877 | RRD (%) for rilzabrutinib vs. placebo, UAS7 reduction of 10 points or more [9]: −3.4 % | Responder, UAS7 reduction from baseline of 10 points or more [9]: 16 (43.2) n (%) | Non-responder, UAS7 reduction from baseline of 10 points or more [10]: 12 (29.3) n (%) | OR for rilzabrutinib vs. placebo, UAS7 reduction of 10 points or more [10]: 2.703 | RRD (%) for rilzabrutinib vs. placebo, UAS7 reduction of 10 points or more [10]: 23.5 % | Responder, UAS7 reduction from baseline of 10 points or more [10]: 29 (70.7) n (%) | UAS7 Change from baseline Mean (SD) [11]: −16.74 (11.67) | UAS7 Change from baseline Median [11]: −15.17 | UAS7 Mean (SD) [11]: 13.41 (10.60) | UAS7 Median [11]: 14.00 | UAS7 Percent change from baseline Mean (SD) [11]: −54.42 (33.80) % | UAS7 Percent change from baseline Median [11]: −50.00% | UAS7 Change from baseline Mean (SD) [12]: −24.11 (14.81) | UAS7 Change from baseline Median [12]: −20.50 | UAS7 Mean (SD) [12]: 8.92 (10.94) | UAS7 Median [12]: 5.50 | UAS7 Percent change from baseline Mean (SD) [12]: −70.71 (27.72) % | UAS7 Percent change from baseline Median [12]: −73.90% | Non-responder, UAS7 reduction from baseline of 10 points or more [13]: 11 (31.4) n (%) | OR for rilzabrutinib vs. placebo, UAS7 reduction of 10 points or more [13]: 2.512 | RRD (%) for rilzabrutinib vs. placebo, UAS7 reduction of 10 points or more [13]: 22.4 % | Responder, UAS7 reduction from baseline of 10 points or more [13]: 24 (68.6) n (%) | Non-responder, UAS7 reduction from baseline of 10 points or more (Week 6, 400 mg BID, ITT population): 20 (48.8) n (%)

From patent US20260256792A1, “TREATMENT OF CHRONIC SPONTANEOUS URTICARIA BY ADMINISTERING (R)-2-[3-[4-AMINO-3-(2-FLUORO-4-PHENOXY-PHENYL)PYRAZOLO[3,4-D]PYRIMIDIN-1-YL]PIPERIDINE-1-CARBONYL]-4-METHYL-4-[4-(OXETAN-3-YL)PIPERAZIN-1-YL]PENT-2-ENENITRILE” (priority 2023, published 2026)
